Source: paper PMC8391236, “Effect of Pterostilbene, a Natural Derivative of Resveratrol, in the Treatment of Colorectal Cancer through Top1/Tdp1-Mediated DNA Repair Pathway” (Cancers, 2021)

Assays:
siRNA-Top1 CL187 cells = experiment: Cell viability of Top1-silenced cells; format: cell-based, Human; details: siRNA-Top1 CL187; CPT 0.5 μM, FM 25 μM
Procedure: (§1) PTE or RE were dissolved in DMSO and diluted with culture medium to 1–100 μM. The final concentration of DMSO was less than 0.1%, and 0.1% DMSO as negative control. […] Exponentially growing cells were seeded in 96-well plates (5 × 10^3 cells/well) for 12 h. Various drugs were added separately and incubated for 24, 48, and 72 h. Cell viability was determined by CCK-8 (Beyotime Biotechnology, Shanghai, China) assay.

siRNA-Tdp1 CL187 cells = experiment: Cell viability of Tdp1-silenced cells; format: cell-based, Human; details: siRNA-Tdp1 CL187, CPT 0.5 μM; for sensitivity / efficacy of positive controls: FM 25 μM
Procedure: as §1

Top1 in CL187 cells [1] = experiment: Intracellular Top1 enzyme activity assay; format: cell-based, Human; details: CL187 cells treated 6 h
Procedure: (§2) CL187 cells were treated with different concentrations of drugs for 6 h. The supernatant was discarded, and the cells were collected. The extracts of cytoplasm, mitochondria, and nucleus were obtained by the same method as described in Section 2.4.7. The protein concentration of each extract was detected by BCA kit. Enzyme activity reaction was carried out by using 125 ng super helical DNA (pHOT-1) and cell extract. The protein concentration of the extract was guaranteed to be the same in each group. The mixture solution of the pHOT-1 and the cell extract was added into the reaction buffer and incubated for 30 min at 37 °C. The reaction was terminated with loading buffer. The agarose gel electrophoresis was performed, and the images were collected.

Tdp1-over CL187 cells = experiment: Cell viability of Tdp1-overexpressing cells; format: cell-based, Human; details: Tdp1-over CL187; CPT 0.5 μM, FM 25 μM
Procedure: CL187 cells were cultured on 6-cm dishes at 37 °C for 24 h. The plasmid (2.5 μg) was diluted with 125 μL serum-free medium Opti-MEM, mixed gently, and incubated at room temperature for 5 min. Lipo 3000 (Invitrogen, Waltham, MA, USA) were diluted with 125 μL serum-free medium Opti-MEM, mixed and incubated for 5 min. Mixed the plasmid and Lipo 3000, incubated at room temperature for 20 min, the mixture was added to CL187 cells, the Tdp1 overexpressed plasmid were transfected into CL187 cells.
PTE or RE were dissolved in DMSO and diluted with culture medium to 1–100 μM. The final concentration of DMSO was less than 0.1%, and 0.1% DMSO as negative control. CPT, as Top1 inhibitor, was diluted to 0.5 μM [36, 37], and FM, as Tdp1 inhibitor was diluted to 25 μM [38]. Exponentially growing cells were seeded in 96-well plates (5 × 10^3 cells/well) for 12 h. […] Cell viability was determined by CCK-8 (Beyotime Biotechnology, Shanghai, China) assay. Cell viability and inhibition rate were calculated with the following formulae:Cell viability (%) = [OD450 (sample)/OD450 (control)] × 100(1) Inhibition rate (%) = […] − cell viability (%)(2)
The drug concentration required for inhibiting cell proliferation by 50% (IC50) was determined by interpolation from dose-response curves.

Top1 in CL187 cells [2] = target: Top1 in CL187 cells (Homo sapiens, UniProt P11387); experiment: Intracellular Top1 enzyme activity assay; format: cell-based; set-up: endogenous in cells; host or cells: CL187 cells (nuclear, mitochondrial and cytoplasmic extracts); details: CL187 cells treated 6 h; CPT at 50 μM
Procedure: as §2

Top1 = target: T1, Top1 (Homo sapiens, UniProt P11387); experiment: Direct Top1 enzyme activity (DNA relaxation) assay; format: biochemical; details: gel electrophoresis
T1 construct: purchased TopoGEN, Buena Vista, CO, USA
T1 sequence (P11387 1-765): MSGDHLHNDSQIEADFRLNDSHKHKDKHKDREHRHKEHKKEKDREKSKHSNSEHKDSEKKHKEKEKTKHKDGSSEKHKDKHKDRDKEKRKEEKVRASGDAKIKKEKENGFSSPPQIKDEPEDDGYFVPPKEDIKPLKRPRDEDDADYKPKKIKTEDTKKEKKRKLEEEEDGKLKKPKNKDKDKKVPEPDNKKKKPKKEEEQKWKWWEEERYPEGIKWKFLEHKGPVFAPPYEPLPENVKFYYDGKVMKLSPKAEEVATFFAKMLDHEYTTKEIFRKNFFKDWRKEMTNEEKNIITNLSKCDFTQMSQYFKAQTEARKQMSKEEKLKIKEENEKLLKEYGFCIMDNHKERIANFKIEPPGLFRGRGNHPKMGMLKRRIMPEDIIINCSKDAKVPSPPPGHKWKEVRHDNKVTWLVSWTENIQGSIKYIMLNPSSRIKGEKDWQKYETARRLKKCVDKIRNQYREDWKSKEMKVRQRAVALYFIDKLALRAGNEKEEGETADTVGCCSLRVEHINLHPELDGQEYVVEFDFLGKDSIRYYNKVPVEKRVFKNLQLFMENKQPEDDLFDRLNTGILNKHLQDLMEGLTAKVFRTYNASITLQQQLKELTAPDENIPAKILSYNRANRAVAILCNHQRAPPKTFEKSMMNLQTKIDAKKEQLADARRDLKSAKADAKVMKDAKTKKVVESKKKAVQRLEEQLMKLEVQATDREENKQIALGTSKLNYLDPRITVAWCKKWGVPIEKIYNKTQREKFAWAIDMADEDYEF
Procedure: Different concentrations of the drug solution were prepared. The solvent was used as negative control group, and CPT (50 μM) was used as the positive control group. Each sample included 2 units of Top1 (TopoGEN, Buena Vista, CO, USA) and 250 ng super helical DNA (pHOT-1, TopoGEN, Buena Vista, CO, USA). The samples were incubated for 30 min at 37 °C, and then the reaction was stopped with SDS. After digestion with proteinase K (50 μg/mL, 60 min at 37 °C), samples were separated through electrophoresis (1% agarose gel). The electrophoresis was conducted at 180 V constant pressure for 20 min. The gel was immersed in the dye without EB for 30 min, and the images were collected by gel imaging system (Tanon-1600B, Shanghai, China).

[3] = tested on: liver, kidney, lung, and paracancerous colon tissues; experiment: HE staining of organs of orthotopic xenograft mice; format: in vivo; details: orthotopic xenograft nude mice
Procedure: (§3) The mice were anaesthetized with 10% chloral hydrate and fixed on the operating table. After the abdomen of the mice was disinfected with iodine, a small section of the large intestine was squeezed out of the surgical opening. The 0.1 mL (per mouse) CL187 cell suspension (1 × 10^7 /mL) was inoculated into the colon wall of nude mice. After the inoculation, the large intestine was placed into the mouse abdominal cavity. After the wound was sutured, the mice were put into cages until they naturally woke up. After 10 days of inoculation, the animals were randomly divided into 4 groups (6 mice per group). Vector control group was intraperitoneally injected with 5% DMSO and 95% saline containing 30% HP-β-CD (i.p.). The drug dosage was designed according to the results of the previous pharmacokinetic experiment. Experimental Group 1 was intraperitoneal injected (i.p.) with PTE 100 mg/kg, and experiment Group 2 was intragastric administrated (i.g.) with PTE 500 mg/kg, once a day. The bioavailability of PTE was the same in the animals in the above regimens. Positive control group was injected with irinotecan, 20 mg/kg, twice a week. During the experiment, the changes of body weight of nude mice were recorded. After 21 days, the nude mice were sacrificed, the tumor blocks were removed surgically, weighed, and recorded. Tumor and organ tissues were paraffin-embedded and sectioned into 4 mm after being fixed in 4% of paraformaldehyde solution for 24 h. The sections were deparaffinized and rehydrated before detection. For histological observation, tumor sections were stained with hematoxylin and eosin (HE), and then observed by an inverted microscopy (Olympus, Japan).

[4] = tested on: orthotopic CL187 xenograft; experiment: Orthotopic CL187 xenograft model; format: in vivo, BABLc/nude mice
Procedure: as §3, with “recorded.” for “recorded. Tumor and organ tissues were paraffin-embedded and sectioned into 4 mm after being fixed in 4% of paraformaldehyde solution for 24 h. The sections were deparaffinized and rehydrated before detection. For histological observation, tumor sections were stained with hematoxylin and eosin (HE), and then observed by an inverted microscopy (Olympus, Japan).”
Tumor and organ tissues were paraffin-embedded and sectioned into […] after being fixed in 4% of paraformaldehyde solution for 24 h. The sections were deparaffinized and rehydrated before detection. For histological observation, tumor sections were stained with hematoxylin and eosin (HE), and then observed by an inverted microscopy (Olympus, Japan).
For immunohistochemistry analysis, the sections were treated with 3% hydrogen peroxide for 10 min to block endogenous peroxidase, and then incubated with Ki67 primary antibody for overnight at 4 °C. Subsequently, the sections were treated with secondary antibody at room temperature for 20 min. After being washed with PBS, the sections were incubated with DAB chromogenic solution for 10 min, followed by rewashing in PBS. The sections were counterstained with hematoxylin after DAB coloration. The antibody specificity was confirmed by negative control without primary antibody treatment. Immunopositive areas were observed by an inverted microscope (Olympus, Japan).

[5] = tested on: subcutaneous CL187 xenograft; experiment: Subcutaneous CL187 xenograft model; format: in vivo, BABLc/nude mice
Procedure: CL187 cell suspension was collected at 1 × 10^6 /mL, and 0.1 mL cell was inoculated into the right inguinal region of nude mice. The tumor was no metastasis. The diameter of the transplanted tumor in nude mice was measured with a vernier caliper. After 16-day inoculation (the tumor grew to 90 mm^3), the animals were randomly divided into 7 groups (6 mice per group). The drug was administered by intraperitoneal injection. Blank control group was injected with saline. […] According to the preliminary test results. […] Positive control group was injected with irinotecan (20 mg/kg) twice a week, During the experiment, the changes of body weight of nude mice were recorded, and the anti-tumor effect of the samples was dynamically investigated by measuring tumor diameter. On Day 31 post treatment, the nude mice were sacrificed, and the tumor blocks were removed surgically, weighed, and recorded.

[6] = 20 mg/kg-i.p. twice a week, 21 days

Compound	inhibitory effect on cell proliferation of positive controls (siRNA-Top1 CL187 cells)	inhibition at 0.5 µM (siRNA-Tdp1 CL187 cells; Homo sapiens, read-out: cell inhibition rate) [%]	sensitivity / efficacy of positive controls (siRNA-Tdp1 CL187 cells)	concentration with the same inhibitory effect on intracellular Top1 enzyme activity (Top1 in CL187 cells [1]; cell extracts + SC DNA) [µM]	Top1 enzyme activity in mitochondria (Top1 in CL187 cells [1]; CPT at 50 μM)	sensitivity / response of cells to positive controls (Tdp1-over CL187 cells)	Top1 enzyme activity in the nucleus (Top1 in CL187 cells [2])	inhibition of Top1 enzyme activity (SC DNA relaxation) (Top1; 30 min incubation, CPT at 50 uM)	concentration exhibiting the same inhibitory effect on Top1 enzyme activity (Top1; relaxation of supercoiled pHOT-1 DNA, 30 min) [µM]	effect on lung inflammation (HE sections) [3]	degree of tumor necrosis (HE) ([4]; 20 mg/kg-i.p.)	Tumor Inhibitory Rate [4, 6] [%]	Tumor Weight [4, 6] [g]	Ki67 labeling rate in tumor tissue ([4]; 20 mg/kg-i.p., vector control 46.53±3.86%) [%]	Tumor Weight ([5]; 20 mg/kg i.p. twice a week, Day 31) [g]	adverse reactions during the entire treatment process ([5]; subcutaneous CL187 xenograft nude mice, CPT-11 20 mg/kg, PTE 25-200 mg/kg i.p.)
CC[C@@]1(O)C(=O)OCc2c1cc1n(c2=O)Cc2cc3ccccc3nc2-1 [CPT, camptothecin, reference compound]	hardly exhibited inhibitory effect on cell proliferation	~90	significantly increased	50	significantly inhibited	significantly reduced	significantly inhibited	could inhibit Top1 enzyme activity	50							
CCc1c2c(nc3ccc(OC(=O)N4CCC(N5CCCCC5)CC4)cc13)-c1cc3c(c(=O)n1C2)COC(=O)[C@]3(O)CC [CPT-11, irinotecan]										could aggravate the inflammatory response	+++ (+++ denotes the ratio between 1/2 and 3/4)	62.91 ± 11.78	0.81 ± 0.20	22.46 ± 6.78	1.18 ± 0.12	severe diarrhea, lassitude, and other adverse reactions
Cl.Cl.N=C(N)c1ccc(-c2ccc(-c3ccc(C(=N)N)cc3)o2)cc1 [FM, Furamidine dihydrochloride, reference compound]	significantly enhancing the inhibitory effect on the cells		failed to exert its efficacy			good response										
